{"source": "paper PMC10526274", "about": "“Epithelial-Immune Cell Crosstalk Determines the Activation of Immune Cells In Vitro by the Human Cathelicidin LL-37 at Low Physiological Concentrations” (Biomolecules, 2023)", "system": "monocyte-derived dendritic cells (moDCs)", "assay": "Multiplex xMAP cytokine levels, moDCs alone stimulated with LL-37", "type": "cell-based, human", "settings": "1 µM LL-37, 24 h", "procedure": "Peripheral blood mononuclear cells (PBMCs) from a healthy donor were purchased from the American Type Culture Collection (ATCC PCS-800-011). Blood monocytes were isolated from PBMCs by plastic adhesion. Mature monocyte-derived dendritic cells (moDCs) were generated in vitro from peripheral blood monocytes, according to Nair et al.. Briefly, monocytes were cultured in a humidified CO2-incubator (5% CO2, 37 °C) in the complete RPMI-1640 medium (Gibco) with 10% FBS, antibiotics, and supplemented with a cytokine cocktail containing 500 U/mL rhIL-4 and 800 U/mL rhGM-CSF (both Sci-Store, Moscow, Russia). On the third day, the medium was replaced by the same fresh medium with FBS, antibiotics, and the cytokine cocktail. Induction of maturation of the immature monocyte-derived dendritic cells was performed on the 5th day by replacing the medium with the complete RPMI-1640 medium (Gibco) with 10% FBS and antibiotics, supplemented with a cytokine cocktail containing 500 U/mL rhIL-4, 800 U/mL rhGM-CSF (both Sci-Store, Moscow, Russia), and 100 U/mL rhTNF-α (Sigma-Aldrich), and subjected to subsequent incubation of the culture for 4 more days.\nPrimary blood monocytes, moDCs, and NKT cells were seeded in 600 µL of complete RPMI-1640 with 10% Human AB serum (Capricorn Scientific, Ebsdorfergrund, Germany) and supplemented with 1X antibiotic–antimycotic solution into the wells of 24-well plates at a density of 3–7 × 10^5 cells/well 24 h before the experiment. Then, 24 h later, the medium in each well was replaced by the same medium with 1 µM of LL-37 for the sample wells or fresh medium alone for the control wells, and the permeable inserts with the Caco-2 monolayer with TEER > 400 Ω × cm^2, containing 400 μL of the complete medium in their apical chamber, were immediately placed into the appropriate wells. Also, inserts with the Caco-2 monolayer were placed in cell-free wells of 24-well plates in the same complete RPMI-1640 medium with or without 1 µM of LL-37 as controls. Cells were kept in a CO2-incubator (5% CO2, 37 °C) for another 24 h. Then, culture medium from each well was collected, centrifuged, and frozen at −70 °C.\nTo quantitatively evaluate a broad spectrum of analytes secreted by human cell cultures at the protein level, multiplex xMAP technology was used. The chosen panel (cat. #HCYTA-60K-PX48, Merck, Darmstadt, Germany) included 48 different magnetic beads with primary antibodies to the following cytokines, chemokines, and growth factors: CCL11 (Eotaxin-1), Flt-3 ligand, CX3CL1 (Fractalkine), sCD40L, FGF-2, EGF, GROα, GM-CSF, G-CSF, IL-1RA, IL-1α, IL-1β, IL-2, IL-3, IL-4, IL-5, IL-6, IL-7, CXCL8 (IL-8), IL-9, IL-10, IL-12p40, IL-12p70, IL-13, IL-15, IL-17A (CTLA8), IL-17E (IL-25), IL-17F, IL-18, IL-22, IL-27, IFNγ, IFNα2, CXCL10 (IP-10), CCL2 (MCP-1), CCL7 (MCP-3), CCL22 (MDC), CXCL9 (MIG), CCL3 (MIP-1α), CCL4 (MIP-1β), CCL5 (RANTES), M-CSF, PDGF-AA, PDGF-AB/BB, TNFα, TNFβ, TGFα, and VEGF-A. The assay was performed in accordance with the manufacturer’s instructions with overnight incubation of the samples with primary antibodies, and the plate was read on a MAGPIX System (Merck) using the xPONENT 4.2 software (Merck). The acquired fluorescence data were analyzed by the MILLIPLEX Analyst v5.1 software (Merck), which realized an advanced curve-fitting algorithm. Levels of the analytes in control and experimental samples were compared with an unpaired two-sample t-test using GraphPad Prism v.8.0.1 (GraphPad Software, Inc., San Diego, CA, USA). The p-values ≤ 0.05 were considered significant.", "note": "Several values for one entry are separate records, joined by “and”; a condition that tells them apart may be missing. Equal values may be shown once.", "data": [{"substance": "LL-37: the only human cathelicidin, host defense antimicrobial peptide of 37 a.a. residues, produced by solid-phase peptide synthesis", "values": [{"measurement": "FLT-3L level", "setting": "n=2, control 0.57", "value": 0.51, "unit": "pg/mL"}, {"measurement": "IL-2 level", "setting": "n=2, control 0.91", "value": 0.91, "unit": "pg/mL"}, {"measurement": "IL-4 level", "setting": "n=2, control 1.14", "value": 1.31, "unit": "pg/mL"}, {"measurement": "TNFb level", "setting": "n=2, control 1.49", "value": 1.3, "unit": "pg/mL"}, {"measurement": "IL-3 level", "setting": "n=2, control 1.55", "value": 0.91, "unit": "pg/mL"}, {"measurement": "IL-18 level", "setting": "n=2, control 1.61", "value": 0.63, "unit": "pg/mL"}, {"measurement": "VEGFa level", "setting": "n=2, control 2.82", "value": 4.61, "unit": "pg/mL"}, {"measurement": "IL-15 level", "setting": "n=2, control 4.12", "value": 4.36, "unit": "pg/mL"}, {"measurement": "IL-5 level", "setting": "n=2, control 4.63", "value": 3.23, "unit": "pg/mL"}, {"measurement": "IFNg level", "setting": "n=2, control 5.89", "value": 5.02, "unit": "pg/mL"}, {"measurement": "EGF level", "setting": "n=2, control 7.65", "value": 6.75, "unit": "pg/mL"}, {"measurement": "IL-9 level", "setting": "n=2, control 8.22", "value": 7.84, "unit": "pg/mL"}, {"measurement": "IL-1b level", "setting": "n=2, control 9.37", "value": 7, "unit": "pg/mL"}, {"measurement": "IFNa2 level", "setting": "n=2, control 10.16", "value": 11.65, "unit": "pg/mL"}, {"measurement": "IL-1RA level", "setting": "n=2, control 11.72", "value": 11.72, "unit": "pg/mL"}, {"measurement": "GM-CSF level", "setting": "n=2, control 13.02", "value": 10.06, "unit": "pg/mL"}, {"measurement": "IL-22 level", "setting": "n=2, control 13.22", "value": 11.11, "unit": "pg/mL"}, {"measurement": "G-CSF level", "setting": "n=2, control 20.3", "value": 13.54, "unit": "pg/mL"}, {"measurement": "PDGF-AA level", "setting": "n=2, control 24.8", "value": 25.69, "unit": "pg/mL"}, {"measurement": "TGF-a level", "setting": "n=2, control 25.07", "value": 20.52, "unit": "pg/mL"}, {"measurement": "IL-6 level", "setting": "n=2, control 27.8", "value": 30.65, "unit": "pg/mL"}, {"measurement": "Fractalkine level", "setting": "n=2, control 28.72", "value": 25.92, "unit": "pg/mL"}, {"measurement": "IL-13 level", "setting": "n=2, control 36.28", "value": 29.87, "unit": "pg/mL"}, {"measurement": "TNFa level", "setting": "n=2, control 40.81", "value": 40.03, "unit": "pg/mL"}, {"measurement": "FGF-2 level", "setting": "n=2, control 48.6", "value": 47.27, "unit": "pg/mL"}, {"measurement": "GROa level", "setting": "n=2, control 51.39", "value": 53.94, "unit": "pg/mL"}, {"measurement": "IL-27 level", "setting": "n=2, control 55.75", "value": 59.83, "unit": "pg/mL"}, {"measurement": "IL-12 (p40) level", "setting": "n=2, control 61.22", "value": 61.22, "unit": "pg/mL"}, {"measurement": "IP-10 level", "setting": "n=2, control 66.42", "value": 57.64, "unit": "pg/mL"}, {"measurement": "PDGF-AB/BB level", "setting": "n=2, control 72.4", "value": 70.07, "unit": "pg/mL"}, {"measurement": "IL-10 level", "setting": "n=2, control 89.23, p = 0.0058", "value": "62 pg/mL and 62.12 pg/mL"}, {"measurement": "sCD40L level", "setting": "n=2, control 98.84", "value": 95.47, "unit": "pg/mL"}, {"measurement": "M-GSF level", "setting": "n=2, control 200.96", "value": 185.65, "unit": "pg/mL"}, {"measurement": "RANTES level", "setting": "n=2, control 423.03", "value": 417.4, "unit": "pg/mL"}, {"measurement": "MCP-3 level", "setting": "n=2, control 573.83", "value": 545.69, "unit": "pg/mL"}, {"measurement": "MIP-1b level", "setting": "n=2, control 2042", "value": 2065, "unit": "pg/mL"}, {"measurement": "MIP-1a level", "setting": "n=2, control 2533", "value": 2368, "unit": "pg/mL"}, {"measurement": "MCP-1 level", "setting": "n=2, control 3176", "value": 2573, "unit": "pg/mL"}, {"measurement": "IL-8 level", "setting": "n=2, control 4102", "value": 4051, "unit": "pg/mL"}, {"measurement": "MIG level", "setting": "n=2, control 27057", "value": 23618, "unit": "pg/mL"}, {"measurement": "IL-7 level", "setting": "n=2, control <0.30", "value": "<0.30↓ pg/ml"}, {"measurement": "IL-17A level", "setting": "n=2, control <0.70", "value": "<0.70↓ pg/ml"}, {"measurement": "IL-1a level", "setting": "n=2, control <1.30", "value": "<1.30↓ pg/ml"}, {"measurement": "IL-12 (p70) level", "setting": "n=2, control <1.71", "value": "<1.71↓ pg/ml"}, {"measurement": "Eotaxin level", "setting": "n=2, control <2.91", "value": "<2.91↓ pg/ml"}, {"measurement": "IL-17F level", "setting": "n=2, control <12.19", "value": "<12.19↓ pg/ml"}, {"measurement": "IL-17E/IL-25 level", "setting": "n=2, control <19.43", "value": "<19.43↓ pg/ml"}, {"measurement": "MDC level", "setting": "n=2, control >14590", "value": ">14590↑ pg/ml"}]}]}
